Data published in ChEMBL document CHEMBL1147250, “Enhancement of the antiplasmodial activity of quassin by transformation into a gamma-lactone” (J Nat Prod, 2003).
Blank lines part the entries; values can stand above or below the molecule they belong to.

What was measured:
Plasmodium falciparum [1] = experiment: Antiplasmodial activity against Plasmodium falciparum K1
Plasmodium falciparum [2] = experiment: Antiplasmodial activity against chloroquine-resistant Plasmodium falciparum K1 infected erythrocytes by [3H]hypoxanthine uptake; format: functional, organism-based
[3] = Selectivity index, ratio of IC50 for human KB cells to IC50 for Plasmodium falciparum K1; format: toxicity, cell-based; conditions: KB cells (cytotoxicity) versus Plasmodium falciparum K1, read-out: Selectivity Index

IC50 (Plasmodium falciparum [1]): 68 µM
Structure (SMILES): COC1=C[C@@H](C)[C@@H]2C[C@H]3OC(O)[C@H](O)[C@H]4C(C)=C(OC)C(=O)[C@H]([C@@]2(C)C1=O)[C@]43C (some centres not stated) [HYDROXYNEOQUASSINS]

Structure (SMILES): COC1=C[C@@H](C)[C@@H]2C[C@H]3OC(OC4C[C@H]5C(C)=C(OC)C(=O)[C@@H]6[C@@]7(C)C(=O)C(OC)=C[C@@H](C)[C@@H]7C[C@@H](O4)[C@]65C)C[C@H]4C(C)=C(OC)C(=O)[C@H]([C@@]2(C)C1=O)[C@@]34C (some centres not stated) [NEOQUASSIN ETHER]
IC50 (Plasmodium falciparum [1]): 9.7 µM
IC50 (Plasmodium falciparum [2]): 149 µM
selectivity ratio [3]: 15.3

IC50 (Plasmodium falciparum [1]): 0.6 µM
Structure (SMILES): CCN(CC)CCCC(C)Nc1ccnc2cc(Cl)ccc12 (configuration not stated) [CHLOROQUINE PHOSPHATE]

Structure (SMILES): CC[C@H]1CN2CCc3cc(OC)c(OC)cc3[C@@H]2C[C@@H]1C[C@H]1NCCc2cc(OC)c(OC)cc21
IC50 (Plasmodium falciparum [2]): 0.96 µM

Structure (SMILES): COC1=C[C@@H](C)[C@@H]2C[C@H]3OC(O)C[C@H]4C(C)=C(OC)C(=O)[C@H]([C@@]2(C)C1=O)[C@@]34C (some centres not stated) [NEOQUASSIN]
IC50 (Plasmodium falciparum [1]): 473 µM
IC50 (Plasmodium falciparum [2]): 615 µM
selectivity ratio [3]: 1.3

Structure (SMILES): COC1=C[C@@H](C)[C@@H]2C[C@H]3OC(=O)C[C@H]4C(C)=C(OC)C(=O)[C@H]([C@@]2(C)C1=O)[C@@]34C [QUASSIN]
IC50 (Plasmodium falciparum [1]): 911 µM
IC50 (Plasmodium falciparum [2]): > 1000 µM
selectivity ratio [3]: > 1

Structure (SMILES): COC1=C[C@@H](C)[C@@H]2C[C@H]3OC(=O)[C@H](O)[C@H]4C(C)=C(OC)C(=O)[C@H]([C@@]2(C)C1=O)[C@]43C
IC50 (Plasmodium falciparum [1]): 930 µM
IC50 (Plasmodium falciparum [2]): > 1000 µM
selectivity ratio [3]: > 1.1

Structure (SMILES): COC1=C[C@@H](C)[C@@H]2C[C@H]3O[C@@H](O)[C@H]4C(C)=C(OC)C(=O)[C@H]([C@@]2(C)C1=O)[C@]43C [QUASSILACTOL]
IC50 (Plasmodium falciparum [1]): 65 µM
IC50 (Plasmodium falciparum [2]): 576 µM
selectivity ratio [3]: 8.9

Structure (SMILES): COC1=C[C@@H](C)[C@@H]2C[C@H]3OC(=O)[C@H]4C(C)=C(OC)C(=O)[C@H]([C@@]2(C)C1=O)[C@]43C [QUASSILACTONE]
IC50 (Plasmodium falciparum [1]): 23 µM
IC50 (Plasmodium falciparum [2]): 406 µM
selectivity ratio [3]: 17.7

Structure (SMILES): COC1=C[C@@H](C)[C@@H]2C[C@H]3OC(OC(=O)c4cccc(Cl)c4)[C@H](O)[C@H]4C(C)=C(OC)C(=O)[C@H]([C@@]2(C)C1=O)[C@]43C (some centres not stated)
IC50 (Plasmodium falciparum [1]): 1.8 µM
IC50 (Plasmodium falciparum [2]): 232 µM
selectivity ratio [3]: 112

Structure (SMILES): COC1=C[C@@H](C)[C@@H]2C[C@H]3OC=C[C@H]4C(C)=C(OC)C(=O)[C@H]([C@@]2(C)C1=O)[C@@]34C [ANHYDROQUASSIN]
IC50 (Plasmodium falciparum [1]): 809 µM
IC50 (Plasmodium falciparum [2]): > 1000 µM
selectivity ratio [3]: > 1
